US20200331904A1, “3-AMINO-[1,2,4]-TRIAZOLE DERIVATIVES AND THEIR USE FOR CONTROLLING UNDESIRED PLANT GROWTH” (Bayer CropScience Aktiengesellschaft, priority 2017, published 2020)

Tests used:
Assay type in all cases: in vivo
Conditions in all cases: application rate 320 g/ha, scored visually after about 3 weeks
[1] = test system: Stellaria media; test: Pre-emergence herbicidal efficacy, STEME
Text: (§1) C.1 Pre-Emergence Herbicidal Action and Crop Plant Compatibility
(§2) Seeds of monocotyledonous and dicotyledonous weed plants and crop plants are placed in plastic or organic planting pots and covered with soil. The compounds of the invention, formulated in the form of wettable powders (WP) or as emulsion concentrates (EC), are then applied onto the surface of the covering soil as aqueous suspension or emulsion with addition of 0.5% additive at a water application rate of […] (converted). After the treatment, the pots are placed in a greenhouse and kept under good growth conditions for the trial plants. After about 3 weeks, the effect of the preparations is scored visually in comparison with untreated controls as percentages. For example, 100% activity=the plants have died, 0% activity=like control plants.
(§3) ABUTH: Abutilon theophrasti ALOMY: Alopecurus myosuroides AMARE: Amaranthus retroflexus AVEFA: Avena fatua CYPES: Cyperus esculentus ECHCG: Echinochloa crus-galli LOLMU: Lolium multiflorum MATIN: Matricaria inodora PHBPU: Ipomoea purpurea POLCO: Polygonum convolvulus SETVI: Setaria viridis STEME: Stellaria media VERPE: Veronica persica VTOTR: Viola tricolor

[2] = test system: Matricaria inodora; test: Pre-emergence herbicidal efficacy, MATIN
Text: as §1, §2, §3

[3] = test system: Viola tricolor; test: Pre-emergence herbicidal efficacy, VIOTR
Text: as §1, §2, §3

Structure (SMILES)	Herbicidal efficacy against STEME [1] [%]	Herbicidal efficacy against MATIN [2] [%]	Herbicidal efficacy against VIOTR [3] [%]
O=C(C1CC1)N1CCn2nc(NC3CCCc4ccccc43)nc2C1 (stereo not shown) [Example I-060]	100	100	90
CS(=O)(=O)N1CCn2nc(NC3CCCc4ccccc43)nc2C1 (stereo not shown) [Example I-097]	100	100	100
Cc1ccc2c(c1)[C@H](Nc1nc3n(n1)CCN(C(=O)c1cccc(Cl)c1)C3)CCC2 [Example I-185]	100	90	100
Cc1ccc2c(c1)[C@H](Nc1nc3n(n1)CCN(C(=O)c1cccc(C(F)(F)F)c1)C3)CC2 [Example I-176]	80	80	90
CC(C)S(=O)(=O)N1CCn2nc(NC3CCCc4ccccc43)nc2C1 (stereo not shown) [Example I-094]	100	100	100
CS(=O)(=O)N1CCCn2nc(NC3CCCc4ccccc43)nc21 (stereo not shown) [Example I-305]	100	100	100
Cc1ccc2c(c1)[C@H](Nc1nc3n(n1)CCN(C(=O)c1ccc(Cl)cc1)C3)CC2 [Example I-179]	100	90	70
Cc1ccc2c(c1)C(Nc1nc3n(n1)CCCN3S(=O)(=O)C(C)C)CCC2 (stereo not shown) [Example I-325]	100		
c1ccc2c(c1)CCCC2Nc1nc2n(n1)CCCCS2 (stereo not shown) [Example I-216]	100	100	100
Cc1ccc2c(c1)C(Nc1nc3n(n1)CCN(C(=O)c1cccc(C(F)(F)F)c1)C3)C(C)C2 (stereo not shown) [Example I-168]	90	80	100
O=S1(=O)CCCCn2nc(NC3CCc4ccccc43)nc21 (stereo not shown) [Example I-236]	100	100	100
Cc1ccc2c(c1)[C@H](Nc1nc3n(n1)CCNC3)CCC2 [Example I-157]	100	80	100
Cc1ccc2c(c1)C(Nc1nc3n(n1)CCN(C(=O)c1ccccc1Cl)C3)C(C)C2 (stereo not shown) [Example I-169]	100	90	100
O=S(=O)(Cc1ccccc1)N1CCn2nc(NC3CCOc4ccccc43)nc2C1 (stereo not shown) [Example I-076]	90		100
O=S1(=O)CCCn2nc(NC3CCOc4ccccc43)nc21 (stereo not shown) [Example I-242]	80	100	
Cc1ccc2c(c1)C(Nc1nc3n(n1)CCN(C(=O)c1ccccc1)C3)C(C)C2 (stereo not shown) [Example I-166]	100	90	100
c1ccc2c(c1)CCCC2Nc1nc2n(n1)CCCS2 (racemic) [Example I-209]	100	100	100
O=C1CCn2nc(NC3CCc4ccccc43)nc2N1CC1CCCCC1 (stereo not shown) [Example I-223]	100	90	90
O=C(c1ccccc1)N1CCn2nc(N[C@@H]3CCCc4ccccc43)nc2C1 [Example I-164]	100	90	100
Cc1ccc2c(c1)[C@H](Nc1nc3n(n1)CCN(C(=O)c1cccc(Cl)c1)C3)CC2 [Example I-178]	100	70	100

Structure (SMILES)	Herbicidal efficacy against STEME [1] [%]	Herbicidal efficacy against MATIN [2] [%]	Herbicidal efficacy against VIOTR [3] [%]
CC(C)N1C(=O)CCn2nc(NC3CCCc4ccccc43)nc21 (stereo not shown) [Example I-262]	100		100
O=C1CCn2nc(NC3CCCc4ccccc43)nc2N1CC1CCCCC1 (stereo not shown) [Example I-271]	90	90	90
c1ccc2c(c1)OCCC2Nc1nc2n(n1)CCCCS2 (stereo not shown) [Example I-211]	100	100	100
O=C1CCn2nc(NC3CCOc4ccccc43)nc2N1CC1CCCCC1 (stereo not shown) [Example I-255]	90		100
Cc1ccc2c(c1)[C@H](Nc1nc3n(n1)CCN(C(=O)c1ccccc1Cl)C3)CCC2 [Example I-184]	100	90	100
Cc1ccc2c(c1)[C@H](Nc1nc3n(n1)CCN(C(=O)c1ccccc1)C3)CC2 [Example I-174]	100	90	100
Cc1ccc2c(c1)[C@H](Nc1nc3n(n1)CCN(C(=O)c1ccccc1Cl)C3)CC2 [Example I-177]	100	90	100
Cc1ccc2c(c1)[C@H](Nc1nc3n(n1)CCN(C(=O)c1ccccc1)C3)CCC2 [Example I-181]	100	100	100
Cc1ccc2c(c1)[C@H](Nc1nc3n(n1)CCN(C(=O)c1cccc(C(F)(F)F)c1)C3)CCC2 [Example I-183]	100	90	90
CC(=O)N1CCn2nc(NC3CCCc4ccccc43)nc2C1 (stereo not shown) [Example I-061]	100	100	100
CC(=O)N1CCn2nc(N[C@@H]3CCc4ccccc43)nc2C1 [Example I-158]	100	90	100
O=S(=O)(Cc1ccccc1)N1CCn2nc(NC3CCCc4ccccc43)nc2C1 (stereo not shown) [Example I-078]	90	70	100
O=S1(=O)CCCn2nc(NC3CCCc4ccccc43)nc21 (stereo not shown) [Example I-252]	100	100	
O=C1CCn2nc(NC3CCCc4ccccc43)nc2N1CC1CC1 (stereo not shown) [Example I-228]	100	100	100
c1ccc2c(c1)CCC2Nc1nc2n(n1)CCCCS2 (stereo not shown) [Example I-212]	100	100	100
Cc1ccc2c(c1)[C@H](Nc1nc3n(n1)CCN(C(=O)c1ccc(Cl)cc1)C3)CCC2 [Example I-186]	100	80	100
O=C(C1CC1)N1CCn2nc(N[C@@H]3CCc4ccccc43)nc2C1 [Example I-160]	100	90	100
c1ccc2c(c1)OCCC2Nc1nc2n(n1)CCCS2 (racemic) [Example I-204]	100	100	
Cc1ccc2c(c1)C(Nc1nc3n(n1)CCN(C(=O)C1CCCCC1)C3)C(C)C2 (stereo not shown) [Example I-172]	100	90	100
